The numbers were not newly measured in patent US20090163510A1 (Bristol-Myers Squibb Company, priority 2005, published 2009), which cites them from elsewhere.

Where a name gives a salt, the structure may show the parent alone. Read-outs that look alike come from different tables or passages of the source.

In the data set the test system is CML. The conditions noted are these: CML patients, Kantarjian et al.

`Cc1ccc(NC(=O)c2ccc(CN3CCN(C)CC3)cc2)cc1Nc1nccc(-c2cccnc2)n1` [imatinib, Imatinib mesylate]: the “estimated 2-year incidence of resistance” value reads like this: (blastic phase) 80%; (chronic phase post-interferon failure) 10%.
